Assay results as given in patent publication US20240208992A1, “MACROCYCLES AS CFTR MODULATORS” (Idorsia Pharmaceuticals Ltd, priority 2021, published 2024).

Target: human F508del-CFTR (Homo sapiens, UniProt P13569, DEL508-508)
Experiment: F508del-CFTR cell surface expression (corrector activity), DiscoveRx ß-galactosidase complementation chemiluminescence assay in recombinant U2OS cell line;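 note: U2OS cells co-expressing ProLink-tagged F508del-CFTR and a membrane-anchored enzyme acceptor, where more surface CFTR restores β-galactosidase activity measured by chemiluminescence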
Conditions: U2OS cell line, 16h compound incubation; for EC50: EC50, F508del-CFTR cell surface expression, geomean values; for Emax: U2OS, in relation to the Emax of the corrector lumacaftor (=100%), arithmetic mean values

Sequence of human F508del-CFTR (P13569 with tags, fused parts or gaps DEL508-508): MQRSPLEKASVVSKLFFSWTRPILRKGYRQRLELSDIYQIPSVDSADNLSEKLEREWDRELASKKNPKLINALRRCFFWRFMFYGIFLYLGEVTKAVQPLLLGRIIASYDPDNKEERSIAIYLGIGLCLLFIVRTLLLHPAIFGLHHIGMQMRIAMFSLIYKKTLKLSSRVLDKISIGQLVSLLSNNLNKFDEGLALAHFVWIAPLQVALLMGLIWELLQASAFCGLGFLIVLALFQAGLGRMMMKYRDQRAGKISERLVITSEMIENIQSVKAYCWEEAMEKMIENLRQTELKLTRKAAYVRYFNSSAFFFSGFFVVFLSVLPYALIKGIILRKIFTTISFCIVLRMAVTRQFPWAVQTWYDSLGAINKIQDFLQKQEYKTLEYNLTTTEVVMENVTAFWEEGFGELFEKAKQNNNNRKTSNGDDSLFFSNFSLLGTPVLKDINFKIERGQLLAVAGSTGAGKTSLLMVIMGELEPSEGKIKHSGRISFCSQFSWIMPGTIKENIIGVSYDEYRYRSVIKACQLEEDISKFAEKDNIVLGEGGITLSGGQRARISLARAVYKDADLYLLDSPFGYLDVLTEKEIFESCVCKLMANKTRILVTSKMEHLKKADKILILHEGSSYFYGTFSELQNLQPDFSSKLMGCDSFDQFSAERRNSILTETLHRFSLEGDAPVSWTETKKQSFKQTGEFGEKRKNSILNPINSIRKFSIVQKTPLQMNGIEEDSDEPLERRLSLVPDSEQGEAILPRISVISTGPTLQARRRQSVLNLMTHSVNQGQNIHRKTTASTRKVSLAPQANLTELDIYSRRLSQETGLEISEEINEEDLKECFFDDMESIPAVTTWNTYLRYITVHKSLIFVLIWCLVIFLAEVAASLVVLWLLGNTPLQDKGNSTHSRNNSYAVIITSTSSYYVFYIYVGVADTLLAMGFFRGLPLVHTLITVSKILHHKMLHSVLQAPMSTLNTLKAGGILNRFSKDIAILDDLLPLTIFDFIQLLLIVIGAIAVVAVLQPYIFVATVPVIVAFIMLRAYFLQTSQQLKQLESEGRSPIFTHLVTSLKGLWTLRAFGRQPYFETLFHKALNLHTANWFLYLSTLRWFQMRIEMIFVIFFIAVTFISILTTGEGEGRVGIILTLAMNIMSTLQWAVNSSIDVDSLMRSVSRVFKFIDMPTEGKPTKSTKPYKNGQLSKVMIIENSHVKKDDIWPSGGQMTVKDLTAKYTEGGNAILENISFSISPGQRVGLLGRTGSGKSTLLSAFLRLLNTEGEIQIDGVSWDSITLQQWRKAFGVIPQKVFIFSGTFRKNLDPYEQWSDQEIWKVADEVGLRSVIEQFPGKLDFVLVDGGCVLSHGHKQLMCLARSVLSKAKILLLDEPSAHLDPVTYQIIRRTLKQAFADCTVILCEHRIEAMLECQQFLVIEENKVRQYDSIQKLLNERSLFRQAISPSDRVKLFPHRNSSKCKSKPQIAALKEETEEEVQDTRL

Row | SMILES | EC50 [nM] | Emax [%]
1 | COc1cccc(CCNC(=O)[C@@H]2CC(=O)N(C)[C@@H](CC(C)C)C(=O)N(C)CC(=O)N[C@H](Cc3ccccc3)COc3ccc(OC)cc3C(=O)N2)c1 [Example 231, (3R,9S,13S)-3-benzyl-9-isobutyl-17-methoxy-N-(3-methoxyphenethyl)-7,10-dimethyl-5,8,11,15-tetraoxo-2,3,4,5,6,7,8,9,10,11,12,13,14,15-tetradecahydrobenzo[p][1]oxa[4,7,10,14]tetraazacycloheptadecine-13-carboxamide] | 592 | 173
2 | COc1cccc(CCNC(=O)[C@@H]2CC(=O)N(C)[C@@H](CC(C)C)C(=O)N(C)CC(=O)N[C@H](Cc3ccccc3)COc3cc(OC)ccc3C(=O)N2)c1 [Example 232, (3R,9S,13S)-3-benzyl-9-isobutyl-18-methoxy-N-(3-methoxyphenethyl)-7,10-dimethyl-5,8,11,15-tetraoxo-2,3,4,5,6,7,8,9,10,11,12,13,14,15-tetradecahydrobenzo[p][1]oxa[4,7,10,14]tetraazacycloheptadecine-13-carboxamide] | 526 | 105
3 | COc1cccc(CCNC(=O)[C@@H]2CC(=O)N(C)[C@@H](CC(C)C)C(=O)N(C)CC(=O)N[C@H](Cc3ccccc3)COc3cc(C)ccc3C(=O)N2)c1 [Example 233, (3R,9S,13S)-3-benzyl-9-isobutyl-N-(3-methoxyphenethyl)-7,10,18-trimethyl-5,8,11,15-tetraoxo-2,3,4,5,6,7,8,9,10,11,12,13,14,15-tetradecahydrobenzo[p][1]oxa[4,7,10,14]tetraazacycloheptadecine-13-carboxamide] | 610 | 92
4 | CC(C)C[C@H]1C(=O)N(C)CC(=O)N[C@H](Cc2ccccc2)COc2ccc(F)cc2C(=O)N[C@H](C(=O)NCCc2ccc3c(c2)OCO3)CC(=O)N1C [Example 234, (3R,9S,13S)-N-(2-(benzo[d][1,3]dioxol-5-yl)ethyl)-3-benzyl-17-fluoro-9-isobutyl-7,10-dimethyl-5,8,11,15-tetraoxo-2,3,4,5,6,7,8,9,10,11,12,13,14,15-tetradecahydrobenzo[p][1]oxa[4,7,10,14]tetraazacycloheptadecine-13-carboxamide] | 471 | 110
5 | Cc1cccc2c1C(=O)N[C@H](C(=O)NCCc1ccc3c(c1)OCO3)CC(=O)N(C)[C@@H](CC(C)C)C(=O)N(C)CC(=O)N[C@H](Cc1ccccc1)CO2 [Example 235, (3R,9S,13S)-N-(2-(benzo[d][1,3]dioxol-5-yl)ethyl)-3-benzyl-9-isobutyl-7,10,16-trimethyl-5,8,11,15-tetraoxo-2,3,4,5,6,7,8,9,10,11,12,13,14,15-tetradecahydrobenzo[p][1]oxa[4,7,10,14]tetraazacycloheptadecine-13-carboxamide] | 825 | 117
6 | CC(C)C[C@H]1C(=O)N(C)CC(=O)N[C@H](Cc2ccccc2)COc2cc3ccccc3cc2C(=O)N[C@H](C(=O)NCCc2ccc3c(c2)OCO3)CC(=O)N1C [Example 236, (3R,9S,13S)-N-(2-(benzo[d][1,3]dioxol-5-yl)ethyl)-3-benzyl-9-isobutyl-7,10-dimethyl-5,8,11,15-tetraoxo-2,3,4,5,6,7,8,9,10,11,12,13,14,15-tetradecahydronaphtho[2,3-p][1]oxa[4,7,10,14]tetraazacycloheptadecine-13-carboxamide] | 435 | 126
7 | COc1cccc(CCNC(=O)[C@@H]2CC(=O)N(C)[C@@H](CC(C)C)C(=O)N(C)CC(=O)N[C@H](Cc3ccccc3)COc3ccc(Cl)cc3C(=O)N2)c1 [Example 237, (3R,9S,13S)-3-benzyl-17-chloro-9-isobutyl-N-(3-methoxyphenethyl)-7,10-dimethyl-5,8,11,15-tetraoxo-2,3,4,5,6,7,8,9,10,11,12,13,14,15-tetradecahydrobenzo[p][1]oxa[4,7,10,14]tetraazacycloheptadecine-13-carboxamide] | 300 | 128
8 | COc1cccc(CCNC(=O)[C@@H]2CC(=O)N(C)[C@@H](CC(C)C)C(=O)N(C)CC(=O)N[C@H](Cc3ccccc3)COc3cc4ccccc4cc3C(=O)N2)c1 [Example 238, (3R,9S,13S)-3-benzyl-9-isobutyl-N-(3-methoxyphenethyl)-7,10-dimethyl-5,8,11,15-tetraoxo-2,3,4,5,6,7,8,9,10,11,12,13,14,15-tetradecahydronaphtho[2,3-p][1]oxa[4,7,10,14]tetraazacycloheptadecine-13-carboxamide] | 375 | 153
9 | CCc1ccc(CCNC(=O)[C@@H]2CC(=O)N(C)[C@@H](CC(C)C)C(=O)N(C)CC(=O)N[C@H](Cc3ccccc3)COc3cccc(OC)c3C(=O)N2)cc1 [Example 239, (3R,9S,13S)-3-benzyl-N-(4-ethylphenethyl)-9-isobutyl-16-methoxy-7,10-dimethyl-5,8,11,15-tetraoxo-2,3,4,5,6,7,8,9,10,11,12,13,14,15-tetradecahydrobenzo[p][1]oxa[4,7,10,14]tetraazacycloheptadecine-13-carboxamide] | 514 | 142
10 | COc1cccc(CCNC(=O)[C@@H]2CC(=O)N(C)[C@@H](CC(C)C)C(=O)N(C)CC(=O)N[C@H](Cc3ccccc3)COc3ccsc3C(=O)N2)c1 [Example 240, (6R,12S,16S)-6-benzyl-12-isobutyl-N-(3-methoxyphenethyl)-10,13-dimethyl-8,11,14,18-tetraoxo-5,6,7,8,9,10,11,12,13,14,15,16,17,18-tetradecahydrothieno[2,3-p][1]oxa[4,7,10,14]tetraazacycloheptadecine-16-carboxamide] | 1260 | 77
11 | COc1cccc(CCNC(=O)[C@@H]2CC(=O)N(C)[C@@H](CC(C)C)C(=O)N(C)CC(=O)N[C@H](Cc3ccccc3)COc3nc(C)sc3C(=O)N2)c1 [Example 241, (6R,12S,16S)-6-benzyl-12-isobutyl-N-(3-methoxyphenethyl)-2,10,13-trimethyl-8,11,14,18-tetraoxo-5,6,7,8,9,10,11,12,13,14,15,16,17,18-tetradecahydrothiazolo[5,4-p][1]oxa[4,7,10,14]tetraazacycloheptadecine-16-carboxamide] | 1660 | 92
12 | [2H]C([2H])([2H])Oc1cccc2c1C(=O)N[C@H](C(=O)NCCc1ccc3c(c1)OCO3)CC(=O)N(C)[C@@H](CC(C)C)C(=O)N(CCC1CCCCC1)CC(=O)N[C@H](Cc1ccccc1)CO2 [Example 242, (3R,9S,13S)-N-(2-(benzo[d][1,3]dioxol-5-yl)ethyl)-3-benzyl-7-(2-cyclohexylethyl)-9-isobutyl-16-(methoxy-d3)-10-methyl-5,8,11,15-tetraoxo-2,3,4,5,6,7,8,9,10,11,12,13,14,15-tetradecahydrobenzo[p][1]oxa[4,7,10,14]tetraazacycloheptadecine-13-carboxamide] | 177 | 232
13 | [2H]C([2H])([2H])Oc1cccc2c1C(=O)N[C@H](C(=O)NCCc1cccc(OC)c1)CC(=O)N(C)[C@@H](CC(C)C)C(=O)N(CCC1CCCCC1)CC(=O)N[C@H](Cc1ccccc1)CO2 [Example 243, (3R,9S,13S)-3-benzyl-7-(2-cyclohexylethyl)-9-isobutyl-16-(methoxy-d3)-N-(3-methoxyphenethyl)-10-methyl-5,8,11,15-tetraoxo-2,3,4,5,6,7,8,9,10,11,12,13,14,15-tetradecahydrobenzo[p][1]oxa[4,7,10,14]tetraazacycloheptadecine-13-carboxamide] | 181 | 232
